Values after ≈ are worked out from the molar mass of the structure shown.

For the data set the following is noted: for aqueous solubility: pH 6.8.

The aqueous solubility is the dissolved amount per volume that the medium holds. Low readings indicate a poorly soluble substance, high ones a readily soluble substance. As for `CC(=O)N1CCC(Nc2ncnc3cc(-c4ccc(Br)cc4)sc23)CC1`, the MDR1-MDCK efflux ratio was found to be 5.91; the intrinsic clearance, human liver microsomes was 6.41 mL/min/kg; the intrinsic clearance, rat liver microsomes was 43.2 mL/min/kg; the aqueous solubility came out at 10.2 µg/mL (≈ 23.6 µM).

`Cc1nn(C)c(C)c1NC(=O)CN1CCC2(CCCCC2)CC1`: the MDR1-MDCK efflux ratio amounted to 1.6; the intrinsic clearance, human liver microsomes is 12.4 mL/min/kg; the intrinsic clearance, rat liver microsomes was determined as 497 mL/min/kg; the aqueous solubility is 87.3 µg/mL (≈ 274 µM).

As for `Cc1oc(C)c(C(=O)N2CCNC(=O)C2)c1Br`, the MDR1-MDCK efflux ratio worked out at 5.92; the intrinsic clearance, human liver microsomes was not above 4.74 mL/min/kg; the intrinsic clearance, rat liver microsomes is not above 10.7 mL/min/kg; the aqueous solubility worked out at 72.2 µg/mL (≈ 240 µM).

As to `Fc1ccc(NCc2cccc(OCCN3CCOCC3)c2)nc1`, the MDR1-MDCK efflux ratio stood at 0.773; the intrinsic clearance, human liver microsomes was found to be 10.2 mL/min/kg; the intrinsic clearance, rat liver microsomes was found to be 280 mL/min/kg; the aqueous solubility turned out to be 39.6 µg/mL (≈ 120 µM).

For `Cc1ccc(=O)n(CC2(O)CCN(Cc3cccs3)CC2)n1`, the MDR1-MDCK efflux ratio came out at 4.22; the intrinsic clearance, human liver microsomes is not above 4.74 mL/min/kg; the intrinsic clearance, rat liver microsomes was determined as 161 mL/min/kg.

Regarding `Cc1ccc(NC(=O)[C@H]2COc3ccccc3O2)nc1`, the intrinsic clearance, human liver microsomes stood at 187 mL/min/kg; the intrinsic clearance, rat liver microsomes was 1320 mL/min/kg; the aqueous solubility is 31.4 µg/mL (≈ 116 µM).

As for `CC(C)(O)CCn1cc2cc(NC(=O)c3cccc(C(F)F)n3)c(OCC3COC3)cc2n1`, the MDR1-MDCK efflux ratio was found to be 11.7; the intrinsic clearance, human liver microsomes was found to be 7.8 mL/min/kg; the intrinsic clearance, rat liver microsomes was 72.1 mL/min/kg.

In the case of `O=C(Nc1nc2ccccc2[nH]1)c1ccc(-n2cccc2)cc1`, the MDR1-MDCK efflux ratio was 0.359.

`COc1cc2c(cc1OC)-c1[nH]nc(NCc3c(Cl)cccc3Cl)c1C2=O`: the MDR1-MDCK efflux ratio turned out to be 3.05 and the aqueous solubility turned out to be 0.29 µg/mL (≈ 0.717 µM).

For `COc1ccccc1CC(=O)NC1CCN(C)CC1`, the MDR1-MDCK efflux ratio amounted to 6.13; the intrinsic clearance, human liver microsomes was not above 4.74 mL/min/kg; the intrinsic clearance, rat liver microsomes came out at 54.6 mL/min/kg; the aqueous solubility was found to be 43.2 µg/mL (≈ 165 µM).

The compound `Brc1cnc2ccccc2c1` showed an aqueous solubility of 0.925 µg/mL (≈ 4.45 µM).

For `Cc1ccc(-c2ccc(NC(=O)c3ncoc3-c3ccccc3)cc2)o1`, the MDR1-MDCK efflux ratio amounted to 0.447 and the aqueous solubility came out at 0.37 µg/mL (≈ 1.07 µM).

In turn, `CC(=O)NCc1ncc(-c2ccccc2C(=O)O)cn1` returned an intrinsic clearance, human liver microsomes not above 4.74 mL/min/kg; an intrinsic clearance, rat liver microsomes not above 10.7 mL/min/kg; an aqueous solubility of 59.4 µg/mL (≈ 219 µM).

Regarding `CCc1ncc2c(n1)CN(c1ccnc(-c3ccccc3)n1)CC2`, the MDR1-MDCK efflux ratio stood at 0.485; the intrinsic clearance, human liver microsomes came out at 36.1 mL/min/kg; the intrinsic clearance, rat liver microsomes is 259 mL/min/kg; the aqueous solubility is 34.9 µg/mL (≈ 110 µM).

Turning to `O=C(CSc1nc2nc(O)cc(O)c2s1)c1ccc(-c2ccccc2)cc1`, the MDR1-MDCK efflux ratio stood at 0.876; the intrinsic clearance, human liver microsomes worked out at 139 mL/min/kg; the intrinsic clearance, rat liver microsomes is 128 mL/min/kg; the aqueous solubility amounted to 7 µg/mL (≈ 17.7 µM).

For the compound `N#Cc1ccc(N2CCc3c(ncn3C3CC3)C2)nc1`, the MDR1-MDCK efflux ratio is 0.877; the intrinsic clearance, human liver microsomes worked out at 13.4 mL/min/kg; the intrinsic clearance, rat liver microsomes stood at 63.7 mL/min/kg; the aqueous solubility amounted to 45.5 µg/mL (≈ 172 µM).

Take `Cc1nc(-c2cccc(-c3ccc(C(=O)NC[C@@H]4CCCN4)cc3)c2)no1`: the MDR1-MDCK efflux ratio turned out to be 113; the intrinsic clearance, human liver microsomes was not above 4.74 mL/min/kg; the intrinsic clearance, rat liver microsomes stood at 30.1 mL/min/kg.

In the case of `N#Cc1ccc(CNc2cnc3ccccc3c2)o1`, the MDR1-MDCK efflux ratio stood at 0.343; the intrinsic clearance, human liver microsomes amounted to 187 mL/min/kg; the intrinsic clearance, rat liver microsomes was determined as 238 mL/min/kg.

Regarding `COc1cccc(CNc2ncc(-c3ccccc3)n2C)c1`, the MDR1-MDCK efflux ratio is 0.539; the intrinsic clearance, human liver microsomes was determined as 938 mL/min/kg; the intrinsic clearance, rat liver microsomes stood at 2210 mL/min/kg; the aqueous solubility was found to be 23.5 µg/mL (≈ 80 µM).

Consider `CN(C(=O)[C@@H](N)Cc1ccccc1)c1ccccc1`, for which the intrinsic clearance, human liver microsomes is not above 4.74 mL/min/kg and the intrinsic clearance, rat liver microsomes came out at 392 mL/min/kg.

With `Cc1cc(NC(=O)c2cccs2)no1`, the MDR1-MDCK efflux ratio was 0.617; the intrinsic clearance, human liver microsomes came out at 39.6 mL/min/kg; the intrinsic clearance, rat liver microsomes was found to be 793 mL/min/kg; the aqueous solubility was determined as 31.6 µg/mL (≈ 152 µM).

With `CCN1CCN(S(=O)(=O)c2c[nH]c(C(C)C)n2)c2ccccc21`, the MDR1-MDCK efflux ratio was found to be 20.2; the intrinsic clearance, human liver microsomes is 258 mL/min/kg; the intrinsic clearance, rat liver microsomes worked out at 248 mL/min/kg.

Consider `Fc1ccccc1-c1c[nH]nc1C1CCCN1Cc1ccc2ncccc2c1` (stereo not given), for which the MDR1-MDCK efflux ratio was determined as 2.26; the fraction unbound, human plasma was 0.0351; the fraction unbound, rat plasma is 0.0289; the intrinsic clearance, human liver microsomes was 400 mL/min/kg. The compound also displayed an intrinsic clearance, rat liver microsomes of 1630 mL/min/kg and an aqueous solubility of 29.2 µg/mL (≈ 78.4 µM).

On to `Oc1ccc(-c2noc(C3CC3)n2)cc1`, for which the MDR1-MDCK efflux ratio is 0.674 and the aqueous solubility is 49 µg/mL (≈ 242 µM).

Consider `Cc1nc2ncccn2c1C(=O)N(CC#Cc1ccccc1)C1CCCC1`, for which the MDR1-MDCK efflux ratio was determined as 1.94; the intrinsic clearance, human liver microsomes turned out to be 63.7 mL/min/kg; the intrinsic clearance, rat liver microsomes was found to be 4650 mL/min/kg; the aqueous solubility was 42.9 µg/mL (≈ 120 µM).

As to `c1cnc(NCc2cnc3ccsc3c2)nc1`, the MDR1-MDCK efflux ratio was determined as 0.589; the intrinsic clearance, human liver microsomes is 12.5 mL/min/kg; the intrinsic clearance, rat liver microsomes is 52.9 mL/min/kg.

The compound `C[C@H](C(=O)Nc1nc2ccccc2[nH]1)N1Cc2ccccc2C1=O` yielded an intrinsic clearance, human liver microsomes not above 4.74 mL/min/kg; an intrinsic clearance, rat liver microsomes of 62.6 mL/min/kg; an aqueous solubility of 26.5 µg/mL (≈ 82.6 µM).

In turn, `c1ccc(Cc2cccc3cc4c(nc23)OCCNC4)cc1` yielded an intrinsic clearance, human liver microsomes of 24.5 mL/min/kg; an intrinsic clearance, rat liver microsomes of 1120 mL/min/kg; an aqueous solubility of 47.8 µg/mL (≈ 165 µM).

As for `Cn1cc(-c2nc(C(F)(F)F)c[nH]2)cn1`, the aqueous solubility was 40.2 µg/mL (≈ 186 µM).

As for `CS(=O)(=O)NC1CCN(C(=O)NCCc2ccc(F)cc2)CC1`, the MDR1-MDCK efflux ratio is 35.3; the intrinsic clearance, human liver microsomes was not above 4.74 mL/min/kg; the intrinsic clearance, rat liver microsomes came out at 61.4 mL/min/kg; the aqueous solubility was 67.9 µg/mL (≈ 198 µM).

Turning to `Cc1cccn(Cc2cccnc2)c1=O`, the MDR1-MDCK efflux ratio stood at 0.609; the intrinsic clearance, human liver microsomes was not above 4.74 mL/min/kg; the intrinsic clearance, rat liver microsomes was not above 10.7 mL/min/kg; the aqueous solubility is 47 µg/mL (≈ 235 µM).

Take `CC(C)(C)c1ccc(=O)n(CC2CN(CC3(O)CCCC3)C2)n1`: the MDR1-MDCK efflux ratio was found to be 18.8; the intrinsic clearance, human liver microsomes was found to be 6.33 mL/min/kg; the intrinsic clearance, rat liver microsomes is 110 mL/min/kg; the aqueous solubility came out at 45.8 µg/mL (≈ 143 µM).

Regarding `COc1cc(NC(=O)c2ccc(F)cc2C)ncn1`, the MDR1-MDCK efflux ratio was 0.558; the intrinsic clearance, human liver microsomes stood at 8.37 mL/min/kg; the intrinsic clearance, rat liver microsomes is 49.1 mL/min/kg; the aqueous solubility was 15.8 µg/mL (≈ 60.3 µM).

For the compound `Cc1cnc(NC(=O)c2cc(S(=O)(=O)N(C)C)ccc2N2CCCC2)s1`, the MDR1-MDCK efflux ratio stood at 19.9 and the aqueous solubility stood at 0.21 µg/mL (≈ 0.532 µM).

As to `CN1CCN(C(=O)c2cc(Br)cnc2Cl)c2cnccc21`, the MDR1-MDCK efflux ratio was 4.54; the intrinsic clearance, human liver microsomes was determined as 9.09 mL/min/kg; the intrinsic clearance, rat liver microsomes turned out to be 90.8 mL/min/kg; the aqueous solubility is 57.8 µg/mL (≈ 157 µM).

On to `CCc1cc2c(N(C)CCO)ncnc2s1`, for which the MDR1-MDCK efflux ratio is 0.676; the intrinsic clearance, human liver microsomes was found to be 73.6 mL/min/kg; the intrinsic clearance, rat liver microsomes came to 139 mL/min/kg; the aqueous solubility worked out at 40.9 µg/mL (≈ 172 µM).

As to `CC1=C(C(=O)Nc2cc3cn[nH]c3cc2F)C(c2ccc(C(F)(F)F)cc2)CC(=O)N1` (stereo not given), the MDR1-MDCK efflux ratio was found to be 56.3; the intrinsic clearance, human liver microsomes was found to be 51 mL/min/kg; the intrinsic clearance, rat liver microsomes was 120 mL/min/kg.

For the compound `CN1CCC(NS(=O)(=O)C2CN(C(=O)c3cccc(Cl)c3)C2)CC1`, the MDR1-MDCK efflux ratio is 28.4; the intrinsic clearance, human liver microsomes came out at 4.94 mL/min/kg; the intrinsic clearance, rat liver microsomes was not above 10.7 mL/min/kg; the aqueous solubility came out at 56.8 µg/mL (≈ 153 µM).

With `Cc1ccccc1-n1cc[nH]c(=O)c1=O`, the MDR1-MDCK efflux ratio amounted to 1.26; the intrinsic clearance, human liver microsomes amounted to 5.09 mL/min/kg; the intrinsic clearance, rat liver microsomes is not above 10.7 mL/min/kg; the aqueous solubility was 58.4 µg/mL (≈ 289 µM).

For `Cc1c(C(=O)NCCCN(C)C)sc2ncnc(Nc3ccc(F)cc3OC(C)C)c12`, the MDR1-MDCK efflux ratio stood at 59.2; the fraction unbound, human plasma worked out at 0.0552; the fraction unbound, rat plasma was found to be 0.0926; the intrinsic clearance, human liver microsomes was not above 4.74 mL/min/kg. This compound yielded an intrinsic clearance, rat liver microsomes of 52.4 mL/min/kg and an aqueous solubility of 23.6 µg/mL (≈ 52.9 µM).

With `CCc1ccc(CC)c(C(=O)CSc2nncs2)c1`, the MDR1-MDCK efflux ratio stood at 0.473; the intrinsic clearance, human liver microsomes is 219 mL/min/kg; the intrinsic clearance, rat liver microsomes is 1550 mL/min/kg.

For the compound `N#Cc1ccc2[nH]c(O)c(-c3ccc(CN4CCOCC4)cn3)c2c1`, the MDR1-MDCK efflux ratio worked out at 26; the fraction unbound, rat plasma was found to be 0.118; the intrinsic clearance, human liver microsomes was 11.2 mL/min/kg; the intrinsic clearance, rat liver microsomes is 70.8 mL/min/kg. In addition, the aqueous solubility was found to be 25.9 µg/mL (≈ 77.6 µM).

For `Cc1nc(Cn2nnnc2C(C)(C)C)nc2ccccc12`, the intrinsic clearance, human liver microsomes stood at 7.42 mL/min/kg and the intrinsic clearance, rat liver microsomes came to 724 mL/min/kg.

Take `CCN1CCOC(C(=O)N2CCC(c3cn[nH]c3)CC2)C1` (stereo not given): the MDR1-MDCK efflux ratio came out at 3.51 and the intrinsic clearance, human liver microsomes was not above 4.74 mL/min/kg.

As for `CCCc1ccc(C(=O)CSc2nncs2)cc1`, the MDR1-MDCK efflux ratio was 0.471; the intrinsic clearance, human liver microsomes was found to be 276 mL/min/kg; the intrinsic clearance, rat liver microsomes was found to be 1260 mL/min/kg.

Regarding `Cc1nn(-c2ccccn2)c2nc(C3CC3)cc(C(=O)O)c12`, the MDR1-MDCK efflux ratio came to 2.52; the intrinsic clearance, human liver microsomes was determined as 4.89 mL/min/kg; the intrinsic clearance, rat liver microsomes was not above 10.7 mL/min/kg; the aqueous solubility turned out to be 51.2 µg/mL (≈ 174 µM).

Compound `Nc1ncccc1OCc1cccc(Cl)c1` displayed an intrinsic clearance, human liver microsomes of 157 mL/min/kg and an intrinsic clearance, rat liver microsomes of 721 mL/min/kg.

The values above are taken from the Biogen ADME set (Fang et al. 2023).
